{"source": "patent US20170143748A1", "about": "“ANTI-TUMOR PHARMACEUTICAL APPLICATION OF PENTACYCLIC TRITERPENE SAPONIN COMPOUNDS OF SZECHUAN MELANDIUM ROOT” (priority 2014, published 2017)", "assay_type_in_all_cases": "cell-based, Human", "key": {"HepG2 [1]": {"test_system": "HepG2", "test": "MTT inhibition of tumor cells in vitro (Example 3)", "conditions": "40 μg/mL, 48 hours"}, "HepG2 [2]": {"test_system": "HepG2", "test": "Inhibitory activity and IC50 to HepG2 at different time of treatment (MTT, Example 4)", "conditions": "HepG2, 40 μg/ml", "protocol": "Human resources hepatoma cell line HepG2 was provided by Cancer Hospital, Chinese Academy of Medical Sciences. […] Cells were passaged every 2 or 3 days, and all the experiments were carried out on exponentially growing cells.\nCells were harvested in good growth status and cell suspension was prepared with 2×10^4 cells/mL, added 100 μL per well of 96-well plates, and cultured for 24 h in the incubator. 100 μL liquid medium with no cell was added per well as blank group.\n3 plates were used as parallel test to culture cells at different period.\nBefore medication, supernatant of each well was removed and fresh 1640 medium was added, 180 μL per well. […] Wells of blank and model groups were added with 0.5% DMSO, 20 μL per well. After finished adding drugs, cells were incubated for 24 and 48 h respectively. At the end of incubation, 20 μL MTT was added per well […]. The supernatant was removed carefully and 150 μL DMSO was added per well. After shaken for 10 mins, the absorbance was read at 490 nm and the inhibition rate was calculated with the formula below.\n(§1) Inhibition rate=[(ODmodel−ODblank)−(ODdrugs−ODblank)]/(ODmodel−ODblank)×100%\nIC50 was calculated with Bliss method.\n(§2) The MTT experiment was repeated three times."}, "MCF-7": {"test_system": "MCF-7", "test": "MTT inhibition of tumor cells in vitro (Example 3)", "conditions": "40 μg/mL, 48 hours", "protocol": "(§3) Human resources tumor cell line […], […], HT29, MCF-7 and A875 were provided by Cancer Hospital, Chinese Academy of Medical Sciences.\n(§4) Cells were passaged every 2 or 3 days, and all the experiments were carried out on exponentially growing cells.\n(§5) All cells were cultured in a humidified atmosphere (5% CO2 and […]), and passaged every 2 or 3 days. Cells were harvested on exponentially growing phase, and cell suspension was prepared with 2×10^4 cells/mL, added with 100 μL per well of 96-well plates, and cultured for 24 h in incubator. 100 μL medium without cells was added per well as blank group.\n(§6) Compound (1), (2), (3), (4), (7) or (8) was dissolved in DMSO respectively, and diluted with 1640 medium at a final concentration of 400 μg/mL, so as to that of the Cisplatin. Cells were divided into 9 groups, they were blank group, model group, Compound (1), (2), (3), (4), (7) and (8) groups, and Cisplatin group as the positive one, 6 wells per group.\n(§7) Before drug administration, supernatant of each well was removed and fresh 1640 medium was added, 180 μL per well. Compounds and Cisplatin were added with 20 μL per well respectively at a final concentration of 40 μg/mL. Wells of blank and model groups were added with 0.5% DMSO, 20 μL per well. 48 hours later, 20 μL MTT was added per well and continued to culture for 4 hours, then the supernatant was replaced carefully and DMSO was added with 150 μL per well to end the experiment. The 96-well plates were shaken for 10 mins and read the absorbance at 490 nm. The Inhibition rate was calculated.\nas §1, §2"}, "HT29": {"test_system": "HT29", "test": "MTT inhibition of tumor cells in vitro (Example 3)", "conditions": "40 μg/mL, 48 hours", "protocol": "as §3, §4, §5, §6, §7, §1, §2"}, "A875": {"test_system": "A875", "test": "MTT inhibition of tumor cells in vitro (Example 3)", "conditions": "40 μg/mL, 48 hours", "protocol": "as §3, §4, §5, §6, §7, §1, §2"}, "BGC823": {"test_system": "BGC823", "test": "MTT inhibition of tumor cells in vitro (Example 3)", "conditions": "40 μg/mL, 48 hours", "protocol": "as §3, §4, §5, §6, §7, §1, §2"}}}
{"smiles": "N.N.[Cl][Pt][Cl]", "note": "[Cisplatin, reference compound]", "values": [{"measurement": "Inhibition rate, HepG2", "setting": "HepG2 [1]", "value": "82.15 ± 4.05", "unit": "%"}, {"measurement": "Inhibition rate", "setting": "HepG2 [2]; 24 h", "value": "47.94 ± 6.328", "unit": "%"}, {"measurement": "Inhibition rate", "setting": "HepG2 [2]; 48 h", "value": "99.45 ± 0.36", "unit": "%"}, {"measurement": "Inhibition rate, MCF-7", "setting": "MCF-7", "value": "97.53 ± 2.05", "unit": "%"}, {"measurement": "Inhibition rate, HT29", "setting": "HT29", "value": "99.04 ± 1.15", "unit": "%"}, {"measurement": "Inhibition rate, A875", "setting": "A875", "value": "90.13 ± 1.98", "unit": "%"}, {"measurement": "Inhibition rate, BGC823", "setting": "BGC823", "value": "97.86 ± 4.12", "unit": "%"}]}
